Measurements reported in ChEMBL document CHEMBL1649134, “Occurrence of efflux mechanism and cephalosporinase variant in a population of Enterobacter aerogenes and Klebsiella pneumoniae isolates producing extended-spectrum beta-lactamases” (2009).
Values after ≈ are worked out from the molar mass of the structure shown.

Tests used:
Format in all cases: functional
[1] = tested on: Klebsiella pneumoniae; test: Antimicrobial activity against multidrug resistant Klebsiella pneumoniae isolate 14 by broth dilution method
[2] = tested on: Klebsiella aerogenes; test: Antimicrobial activity against multidrug resistant Enterobacter aerogenes isolate 27 by broth dilution method
[3] = tested on: Klebsiella aerogenes; test: Antimicrobial activity against multidrug resistant Enterobacter aerogenes isolate 18 by broth dilution method in presence of 26.3 mg/L efflux pump inhibitor phenylalanine-arginine-beta-naphthylamide
[4] = tested on: Klebsiella aerogenes; test: Antimicrobial activity against multidrug resistant Enterobacter aerogenes isolate 17 by broth dilution method in presence of 26.3 mg/L efflux pump inhibitor phenylalanine-arginine-beta-naphthylamide
[5] = tested on: Klebsiella aerogenes; test: Antimicrobial activity against multidrug resistant Enterobacter aerogenes isolate 10 by broth dilution method in presence of 26.3 mg/L efflux pump inhibitor phenylalanine-arginine-beta-naphthylamide
[6] = tested on: Klebsiella aerogenes; test: Antimicrobial activity against multidrug resistant Enterobacter aerogenes isolate 19 by broth dilution method
[7] = tested on: Klebsiella pneumoniae; test: Antimicrobial activity against multidrug resistant Klebsiella pneumoniae ATCC 11296 by broth dilution method in presence of 26.3 mg/L efflux pump inhibitor phenylalanine-arginine-beta-naphthylamide
[8] = tested on: Klebsiella aerogenes; test: Antimicrobial activity against multidrug resistant Enterobacter aerogenes isolate 21 by broth dilution method in presence of 26.3 mg/L efflux pump inhibitor phenylalanine-arginine-beta-naphthylamide
[9] = tested on: Klebsiella pneumoniae; test: Antimicrobial activity against multidrug resistant Klebsiella pneumoniae isolate 4 by broth dilution method in presence of 26.3 mg/L efflux pump inhibitor phenylalanine-arginine-beta-naphthylamide
[10] = tested on: Klebsiella aerogenes; test: Antimicrobial activity against multidrug resistant Enterobacter aerogenes isolate 25 by broth dilution method
[11] = tested on: Klebsiella pneumoniae; test: Antimicrobial activity against multidrug resistant Klebsiella pneumoniae isolate 12 by broth dilution method
[12] = tested on: Klebsiella aerogenes; test: Antimicrobial activity against multidrug resistant Enterobacter aerogenes isolate 26 by broth dilution method in presence of 26.3 mg/L efflux pump inhibitor phenylalanine-arginine-beta-naphthylamide
[13] = tested on: Klebsiella pneumoniae; test: Antimicrobial activity against multidrug resistant Klebsiella pneumoniae isolate 3 by broth dilution method
[14] = tested on: Klebsiella pneumoniae; test: Antimicrobial activity against multidrug resistant Klebsiella pneumoniae isolate 15 by broth dilution method
[15] = tested on: Klebsiella aerogenes; test: Antimicrobial activity against multidrug resistant Enterobacter aerogenes isolate 2 by broth dilution method in presence of 26.3 mg/L efflux pump inhibitor phenylalanine-arginine-beta-naphthylamide
[16] = tested on: Klebsiella aerogenes; test: Antimicrobial activity against multidrug resistant Enterobacter aerogenes isolate 24 by broth dilution method in presence of 26.3 mg/L efflux pump inhibitor phenylalanine-arginine-beta-naphthylamide
[17] = tested on: Klebsiella pneumoniae; test: Antimicrobial activity against multidrug resistant Klebsiella pneumoniae isolate 10 by broth dilution method in presence of 26.3 mg/L efflux pump inhibitor phenylalanine-arginine-beta-naphthylamide
[18] = tested on: Klebsiella aerogenes; test: Antimicrobial activity against multidrug resistant Enterobacter aerogenes ATCC 15038 by broth dilution method
[19] = tested on: Klebsiella aerogenes; test: Antimicrobial activity against multidrug resistant Enterobacter aerogenes isolate 3 by broth dilution method in presence of 26.3 mg/L efflux pump inhibitor phenylalanine-arginine-beta-naphthylamide
[20] = tested on: Klebsiella pneumoniae; test: Antimicrobial activity against multidrug resistant Klebsiella pneumoniae isolate 11 by broth dilution method
[21] = tested on: Klebsiella pneumoniae; test: Antimicrobial activity against multidrug resistant Klebsiella pneumoniae ATCC 11296 by broth dilution method
[22] = tested on: Klebsiella aerogenes; test: Antimicrobial activity against multidrug resistant Enterobacter aerogenes isolate 8 by broth dilution method
[23] = tested on: Klebsiella aerogenes; test: Antimicrobial activity against multidrug resistant Enterobacter aerogenes isolate 4 by broth dilution method in presence of 26.3 mg/L efflux pump inhibitor phenylalanine-arginine-beta-naphthylamide
[24] = tested on: Klebsiella aerogenes; test: Antimicrobial activity against multidrug resistant Enterobacter aerogenes isolate 5 by broth dilution method
[25] = tested on: Klebsiella aerogenes; test: Antimicrobial activity against multidrug resistant Enterobacter aerogenes isolate 25 by broth dilution method in presence of 26.3 mg/L efflux pump inhibitor phenylalanine-arginine-beta-naphthylamide
[26] = tested on: Klebsiella pneumoniae; test: Antimicrobial activity against multidrug resistant Klebsiella pneumoniae isolate 7 by broth dilution method
[27] = tested on: Klebsiella pneumoniae; test: Antimicrobial activity against multidrug resistant Klebsiella pneumoniae isolate 2 by broth dilution method
[28] = tested on: Klebsiella aerogenes; test: Antimicrobial activity against multidrug resistant Enterobacter aerogenes isolate 4 by broth dilution method
[29] = tested on: Klebsiella pneumoniae; test: Antimicrobial activity against multidrug resistant Klebsiella pneumoniae isolate 16 by broth dilution method
[30] = tested on: Klebsiella pneumoniae; test: Antimicrobial activity against multidrug resistant Klebsiella pneumoniae isolate 5 by broth dilution method in presence of 26.3 mg/L efflux pump inhibitor phenylalanine-arginine-beta-naphthylamide
[31] = tested on: Klebsiella aerogenes; test: Antimicrobial activity against multidrug resistant Enterobacter aerogenes isolate 8 by broth dilution method in presence of 26.3 mg/L efflux pump inhibitor phenylalanine-arginine-beta-naphthylamide
[32] = tested on: Klebsiella aerogenes; test: Antimicrobial activity against multidrug resistant Enterobacter aerogenes isolate 15 by broth dilution method in presence of 26.3 mg/L efflux pump inhibitor phenylalanine-arginine-beta-naphthylamide
[33] = tested on: Klebsiella pneumoniae; test: Antimicrobial activity against multidrug resistant Klebsiella pneumoniae isolate 2 by broth dilution method in presence of 26.3 mg/L efflux pump inhibitor phenylalanine-arginine-beta-naphthylamide
[34] = tested on: Klebsiella aerogenes; test: Antimicrobial activity against multidrug resistant Enterobacter aerogenes isolate 22 by broth dilution method in presence of 26.3 mg/L efflux pump inhibitor phenylalanine-arginine-beta-naphthylamide
[35] = tested on: Klebsiella pneumoniae; test: Antimicrobial activity against multidrug resistant Klebsiella pneumoniae isolate 13 by broth dilution method
[36] = tested on: Klebsiella aerogenes; test: Antimicrobial activity against multidrug resistant Enterobacter aerogenes isolate 11 by broth dilution method in presence of 26.3 mg/L efflux pump inhibitor phenylalanine-arginine-beta-naphthylamide
[37] = tested on: Klebsiella pneumoniae; test: Antimicrobial activity against multidrug resistant Klebsiella pneumoniae isolate 13 by broth dilution method in presence of 26.3 mg/L efflux pump inhibitor phenylalanine-arginine-beta-naphthylamide
[38] = tested on: Klebsiella aerogenes; test: Antimicrobial activity against multidrug resistant Enterobacter aerogenes isolate 18 by broth dilution method
[39] = tested on: Klebsiella pneumoniae; test: Antimicrobial activity against multidrug resistant Klebsiella pneumoniae isolate 15 by broth dilution method in presence of 26.3 mg/L efflux pump inhibitor phenylalanine-arginine-beta-naphthylamide
[40] = tested on: Klebsiella aerogenes; test: Antimicrobial activity against multidrug resistant Enterobacter aerogenes isolate 6 by broth dilution method
[41] = tested on: Klebsiella aerogenes; test: Antimicrobial activity against multidrug resistant Enterobacter aerogenes isolate 11 by broth dilution method
[42] = tested on: Klebsiella aerogenes; test: Antimicrobial activity against multidrug resistant Enterobacter aerogenes isolate 26 by broth dilution method
[43] = tested on: Klebsiella aerogenes; test: Antimicrobial activity against multidrug resistant Enterobacter aerogenes isolate 12 by broth dilution method in presence of 26.3 mg/L efflux pump inhibitor phenylalanine-arginine-beta-naphthylamide
[44] = tested on: Klebsiella aerogenes; test: Antimicrobial activity against multidrug resistant Enterobacter aerogenes isolate 16 by broth dilution method
[45] = tested on: Klebsiella pneumoniae; test: Antimicrobial activity against multidrug resistant Klebsiella pneumoniae isolate 8 by broth dilution method in presence of 26.3 mg/L efflux pump inhibitor phenylalanine-arginine-beta-naphthylamide
[46] = tested on: Klebsiella aerogenes; test: Antimicrobial activity against multidrug resistant Enterobacter aerogenes isolate 12 by broth dilution method
[47] = tested on: Klebsiella aerogenes; test: Antimicrobial activity against multidrug resistant Enterobacter aerogenes isolate 27 by broth dilution method in presence of 26.3 mg/L efflux pump inhibitor phenylalanine-arginine-beta-naphthylamide
[48] = tested on: Klebsiella pneumoniae; test: Antimicrobial activity against multidrug resistant Klebsiella pneumoniae isolate 11 by broth dilution method in presence of 26.3 mg/L efflux pump inhibitor phenylalanine-arginine-beta-naphthylamide
[49] = tested on: Klebsiella aerogenes; test: Antimicrobial activity against multidrug resistant Enterobacter aerogenes isolate 20 by broth dilution method in presence of 26.3 mg/L efflux pump inhibitor phenylalanine-arginine-beta-naphthylamide

Q: Which results are given for `C[C@@H]1CN(c2c(F)c(N)c3c(=O)c(C(=O)O)cn(C4CC4)c3c2F)C[C@H](C)N1` [SPARFLOXACIN]?
A: MIC [1]: 2 µg/mL (≈ 5.1 µM); MIC [2]: 256 µg/mL (≈ 652 µM); MIC [3]: 16 µg/mL; MIC [4]: 16 µg/mL; MIC [5]: 8 µg/mL; MIC [6]: 128 µg/mL (≈ 326 µM); MIC [7]: ≤ 0.06 µg/mL; MIC [8]: 32 µg/mL; MIC [9]: 2 µg/mL; MIC [10]: 128 µg/mL (≈ 326 µM); MIC [11]: ≤ 0.06 µg/mL; MIC [12]: 4 µg/mL; MIC [13]: 8 µg/mL (≈ 20.4 µM); MIC [14]: 32 µg/mL (≈ 81.5 µM); MIC [15]: 8 µg/mL; MIC [16]: 16 µg/mL; MIC [17]: 2 µg/mL; MIC [18]: ≤ 0.06 µg/mL; MIC [19]: 8 µg/mL; MIC [20]: 8 µg/mL (≈ 20.4 µM); MIC [21]: ≤ 0.06 µg/mL; MIC [22]: 64 µg/mL (≈ 163 µM); MIC [23]: 8 µg/mL; MIC [24]: 512 µg/mL (≈ 1300 µM); MIC [25]: 8 µg/mL; MIC [26]: 0.25 µg/mL (≈ 0.637 µM); MIC [27]: 2 µg/mL (≈ 5.1 µM); MIC [28]: 128 µg/mL (≈ 326 µM); MIC [29]: 0.125 µg/mL (≈ 0.319 µM); MIC [30]: ≤ 0.06 µg/mL; MIC [31]: 4 µg/mL; MIC [32]: 8 µg/mL; MIC [33]: ≤ 0.06 µg/mL; MIC [34]: 8 µg/mL; MIC [35]: 2.1 µg/mL (≈ 5.35 µM); MIC [36]: 4 µg/mL; MIC [37]: 0.5 µg/mL; MIC [38]: 128 µg/mL (≈ 326 µM); MIC [39]: 8 µg/mL; MIC [40]: 0.125 µg/mL (≈ 0.319 µM); MIC [41]: 128 µg/mL (≈ 326 µM); MIC [42]: 32 µg/mL (≈ 81.5 µM); MIC [43]: 8 µg/mL; MIC [44]: 64 µg/mL (≈ 163 µM); MIC [45]: ≤ 0.06 µg/mL; MIC [46]: 128 µg/mL (≈ 326 µM); MIC [47]: 8 µg/mL; MIC [48]: 2 µg/mL; MIC [49]: 16 µg/mL

Q: Which MIC [1] does the source give for `CCn1cc(C(=O)O)c(=O)c2cc(F)c(N3CCNCC3)cc21` [NORFLOXACIN] here?
A: 8 µg/mL (≈ 25.1 µM)

Q: What about the MIC [2] of the same compound?
A: 256 µg/mL (≈ 802 µM)

Q: And the MIC [3]?
A: 128 µg/mL

Q: And the MIC [4]?
A: 128 µg/mL

Q: And the MIC [5]?
A: 256 µg/mL

Q: And the MIC [6]?
A: 128 µg/mL (≈ 401 µM)

Q: What about the MIC [7] of the same compound?
A: 0.125 µg/mL

Q: What about the MIC [8] of the same compound?
A: 128 µg/mL

Q: What about the MIC [9] of the same compound?
A: 128 µg/mL

Q: What about the MIC [10] of the same compound?
A: 256 µg/mL (≈ 802 µM)

Q: What about the MIC [11] of the same compound?
A: 8 µg/mL (≈ 25.1 µM)

Q: What about the MIC [12] of the same compound?
A: 128 µg/mL

Q: What about the MIC [13] of the same compound?
A: 128 µg/mL (≈ 401 µM)

Q: What about the MIC [14] of the same compound?
A: 256 µg/mL (≈ 802 µM)

Q: What about the MIC [15] of the same compound?
A: 256 µg/mL

Q: What about the MIC [16] of the same compound?
A: 128 µg/mL

Q: And the MIC [17]?
A: 128 µg/mL

Q: What about the MIC [18] of the same compound?
A: 0.125 µg/mL (≈ 0.391 µM)

Q: What about the MIC [19] of the same compound?
A: 256 µg/mL

Q: And the MIC [20]?
A: 64 µg/mL (≈ 200 µM)

Q: And the MIC [21]?
A: 0.5 µg/mL (≈ 1.57 µM)

Q: What about the MIC [22] of the same compound?
A: 128 µg/mL (≈ 401 µM)

Q: And the MIC [23]?
A: 512 µg/mL

Q: What about the MIC [24] of the same compound?
A: 512 µg/mL (≈ 1600 µM)

Q: What about the MIC [25] of the same compound?
A: 128 µg/mL

Q: And the MIC [26]?
A: 0.25 µg/mL (≈ 0.783 µM)

Q: And the MIC [27]?
A: 4 µg/mL (≈ 12.5 µM)

Q: What about the MIC [28] of the same compound?
A: 512 µg/mL (≈ 1600 µM)

Q: And the MIC [29]?
A: 1 µg/mL (≈ 3.13 µM)

Q: What about the MIC [30] of the same compound?
A: 0.5 µg/mL

Q: And the MIC [31]?
A: 128 µg/mL

Q: What about the MIC [32] of the same compound?
A: 128 µg/mL

Q: And the MIC [33]?
A: 2 µg/mL

Q: And the MIC [34]?
A: 128 µg/mL

Q: What about the MIC [35] of the same compound?
A: > 256 µg/mL

Q: What about the MIC [36] of the same compound?
A: 256 µg/mL

Q: And the MIC [37]?
A: 32 µg/mL

Q: And the MIC [38]?
A: 128 µg/mL (≈ 401 µM)

Q: What about the MIC [39] of the same compound?
A: 256 µg/mL

Q: And the MIC [40]?
A: 64 µg/mL (≈ 200 µM)

Q: And the MIC [41]?
A: 512 µg/mL (≈ 1600 µM)

Q: And the MIC [42]?
A: 256 µg/mL (≈ 802 µM)

Q: And the MIC [43]?
A: 512 µg/mL

Q: What about the MIC [44] of the same compound?
A: 512 µg/mL (≈ 1600 µM)

Q: What about the MIC [45] of the same compound?
A: 0.25 µg/mL

Q: And the MIC [46]?
A: 512 µg/mL (≈ 1600 µM)

Q: What about the MIC [47] of the same compound?
A: 128 µg/mL

Q: What about the MIC [48] of the same compound?
A: 64 µg/mL

Q: And the MIC [49]?
A: 128 µg/mL
